According to patent US12064426B2, “Selective inhibitors of ROCK1 and ROCK2 protein kinases and uses thereof” (GENOSCO Inc., priority 2021, dated 2024):

Legend:
[1] = molecular target: T1, Recombinant ROCK1 (amino acids 1-477) (Homo sapiens, UniProt Q13464); experiment: ROCK inhibition assay, LANCE Ultra TR-FRET kinase assay (ROCK1); format: biochemical; settings: 1 μM ATP, 50 nM ULight-CREBtide substrate
T1 construct: Recombinant ROCK1 (amino acids 1-477); by word order, ROCK1 from Carna Biosciences
Procedure, shortened: (§1)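 LANCE Ultra TR-FRET kinase assay with recombinant ROCK1 (aa 1-477) or ROCK2 (aa 5-554), 50 nM ULight-CREBtide and ATP at 1 μM (ROCK1) or 4 μM (ROCK2) in HEPES pH 7.5 with MgCl2, 1 h at room temperature. EDTA stop with Eu anti-phospho-CREB Ser133 antibody; 665/615 nm read gives IC50.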

[2] = molecular target: T2, Recombinant ROCK2 (amino acids 5-554) (Homo sapiens, UniProt O75116); experiment: ROCK inhibition assay, LANCE Ultra TR-FRET kinase assay (ROCK2); format: biochemical; settings: 4 μM ATP, 50 nM ULight-CREBtide substrate
T2 construct: ROCK2 (amino acids 5-554); by word order, ROCK2 from SignalChem
Procedure, shortened: as §1

T2 sequence (O75116 5-554): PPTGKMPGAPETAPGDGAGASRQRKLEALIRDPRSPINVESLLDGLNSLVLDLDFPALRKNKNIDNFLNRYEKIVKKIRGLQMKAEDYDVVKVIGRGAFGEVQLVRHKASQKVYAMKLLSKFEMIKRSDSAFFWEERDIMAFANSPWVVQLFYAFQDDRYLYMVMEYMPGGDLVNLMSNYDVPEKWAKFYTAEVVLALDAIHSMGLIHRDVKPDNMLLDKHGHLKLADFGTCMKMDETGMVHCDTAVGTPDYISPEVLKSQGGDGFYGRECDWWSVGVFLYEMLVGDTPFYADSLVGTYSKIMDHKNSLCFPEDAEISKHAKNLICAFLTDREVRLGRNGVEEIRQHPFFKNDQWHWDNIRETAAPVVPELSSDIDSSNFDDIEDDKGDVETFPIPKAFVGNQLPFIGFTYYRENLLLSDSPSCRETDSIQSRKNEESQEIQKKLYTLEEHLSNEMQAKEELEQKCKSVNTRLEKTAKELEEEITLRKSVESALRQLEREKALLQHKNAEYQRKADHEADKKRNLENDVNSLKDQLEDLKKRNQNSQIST
T1 sequence (Q13464 1-477): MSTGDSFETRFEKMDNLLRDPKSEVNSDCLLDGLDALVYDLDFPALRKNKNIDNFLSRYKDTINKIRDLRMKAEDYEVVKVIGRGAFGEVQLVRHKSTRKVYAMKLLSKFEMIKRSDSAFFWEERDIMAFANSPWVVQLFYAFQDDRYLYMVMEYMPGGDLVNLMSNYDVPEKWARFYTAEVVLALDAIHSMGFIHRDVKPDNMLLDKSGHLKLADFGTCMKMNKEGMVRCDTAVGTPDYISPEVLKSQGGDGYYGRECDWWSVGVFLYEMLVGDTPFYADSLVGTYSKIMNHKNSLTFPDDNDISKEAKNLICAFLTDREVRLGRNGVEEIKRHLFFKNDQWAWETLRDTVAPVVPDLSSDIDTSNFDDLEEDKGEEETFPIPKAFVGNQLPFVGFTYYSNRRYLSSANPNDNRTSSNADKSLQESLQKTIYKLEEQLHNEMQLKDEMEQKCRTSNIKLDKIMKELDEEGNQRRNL

Row | SMILES | IC50 [1] [nM] | IC50 [2] [nM]
1 | Nc1cc(-c2ccc3c(=O)n(Cc4cccc(C(=O)NCCc5ccccc5)c4)ccc3c2)ccn1 [Compound 185] | 101 to 500 | 10 to 100
2 | Nc1cc(-c2ccc3c(=O)n(Cc4cccc(C(=O)Nc5ccc6c(c5)CNCC6)c4)ccc3c2)ccn1 [Compound 187] | 11 to 100 | < 10
3 | CN1CCc2cc(NC(=O)c3cccc(Cn4ccc5cc(-c6ccnc(N)c6)ccc5c4=O)c3)ccc2C1 [Compound 189] | < 10 | < 10
4 | Nc1cc(-c2ccc3c(=O)n(Cc4cccc(C(=O)Nc5nc6c(s5)CNCC6)c4)ccc3c2)ccn1 [Compound 190] | < 10 | < 10
5 | Nc1cc(-c2ccc3c(=O)n(Cc4cccc(C(=O)N[C@H]5CC[C@@H](O)CC5)c4)ccc3c2)ccn1 [Compound 192] | 11 to 100 | 10 to 100
6 | Nc1cc(-c2ccc3c(=O)n(Cc4cccc(C(=O)N[C@H]5CC[C@H](O)CC5)c4)ccc3c2)ccn1 [Compound 193] | 101 to 500 | 10 to 100
7 | Nc1cc(-c2ccc3c(=O)n(Cc4cccc(C(=O)NC5CCOCC5)c4)ccc3c2)ccn1 [Compound 194] | 101 to 500 | 10 to 100
8 | Nc1cc(-c2ccc3c(=O)n(Cc4cccc(C(=O)NC5COC5)c4)ccc3c2)ccn1 [Compound 195] | 101 to 500 | 10 to 100
9 | Nc1cc(-c2ccc3c(=O)n(Cc4cccc(C(=O)Nc5ccc6c(c5)CCOC6)c4)ccc3c2)ccn1 [Compound 196] | 101 to 500 | 10 to 100
10 | Nc1cc(-c2ccc3c(=O)n(Cc4cccc(C(=O)Nc5ccc6c(c5)COCC6)c4)ccc3c2)ccn1 [Compound 197] | 11 to 100 | 10 to 100
11 | Nc1cc(-c2ccc3c(=O)n(Cc4cccc(C(=O)NC5CCCC5)c4)ccc3c2)ccn1 [Compound 198] | > 501 | 100 to 500
12 | Nc1cc(-c2ccc3c(=O)n(Cc4cccc(C(=O)Nc5ncc[nH]5)c4)ccc3c2)ccn1 [Compound 199] | > 501 | 100 to 500
13 | Cn1ccc(NC(=O)c2cc(F)cc(Cn3ccc4cc(-c5ccnc(N)c5)ccc4c3=O)c2)n1 [Compound 201] | 11 to 100 | < 10
14 | Nc1cc(-c2ccc3c(=O)n(Cc4cc(F)cc(C(=O)NC5COC5)c4)ccc3c2)ccn1 [Compound 202] | > 501 | 100 to 500
15 | Nc1cc(-c2ccc3c(=O)n(Cc4cccc(C(=O)Nc5ccno5)c4)ccc3c2)ccn1 [Compound 203] | > 501 | 100 to 500
16 | Nc1cc(-c2ccc3c(=O)n(Cc4cccc(C(=O)Nc5ccon5)c4)ccc3c2)ccn1 [Compound 204] | > 501 | 100 to 500
17 | Nc1cc(-c2ccc3c(=O)n(Cc4cc(F)cc(C(=O)Nc5ccon5)c4)ccc3c2)ccn1 [Compound 205] | > 501 | 100 to 500
18 | O=C(Nc1ccno1)c1cccc(Cn2ccc3cc(N4CCOCC4)ccc3c2=O)c1 [Compound 206] | > 501 | > 500
19 | O=C(NC1COC1)c1cccc(Cn2ccc3cc(N4CCOCC4)ccc3c2=O)c1 [Compound 207] | 11 to 100 | 100 to 500
20 | O=C(NC1COC1)c1cc(F)cc(Cn2ccc3cc(N4CCOCC4)ccc3c2=O)c1 [Compound 208] | > 501 | 100 to 500

Row | SMILES | IC50 [1] [nM] | IC50 [2] [nM]
21 | O=C(N[C@H]1C[C@@H](O)C1)c1cc(F)cc(Cn2ccc3cc(N4CCOCC4)ccc3c2=O)c1 [Compound 209] | > 501 | 100 to 500
22 | O=C(N[C@H]1C[C@H](O)C1)c1cc(F)cc(Cn2ccc3cc(N4CCOCC4)ccc3c2=O)c1 [Compound 210] | > 501 | 100 to 500
23 | O=C(NC1CCOCC1)c1cc(F)cc(Cn2ccc3cc(N4CCOCC4)ccc3c2=O)c1 [Compound 211] | > 501 | 100 to 500
24 | O=C(NC1CCOCC1)c1cccc(Cn2ccc3cc(N4CCOCC4)ccc3c2=O)c1 [Compound 212] | > 501 | 100 to 500
25 | O=C(N[C@H]1CC[C@H](O)CC1)c1cccc(Cn2ccc3cc(N4CCOCC4)ccc3c2=O)c1 [Compound 213] | > 501 | 100 to 500
26 | O=C(N[C@H]1CC[C@@H](O)CC1)c1cccc(Cn2ccc3cc(N4CCOCC4)ccc3c2=O)c1 [Compound 214] | > 501 | 100 to 500
27 | O=C(N[C@H]1CC[C@@H](O)CC1)c1cc(F)cc(Cn2ccc3cc(N4CCOCC4)ccc3c2=O)c1 [Compound 215] | > 501 | 100 to 500
28 | O=C(NCCN1CCOCC1)c1cccc(Cn2ccc3cc(N4CCOCC4)ccc3c2=O)c1 [Compound 216] | 101 to 500 | 100 to 500
29 | O=C(NCC1CCNCC1)c1cccc(Cn2ccc3cc(N4CCOCC4)ccc3c2=O)c1 [Compound 217] | 101 to 500 | 10 to 100
30 | CN1CCC(CNC(=O)c2cccc(Cn3ccc4cc(N5CCOCC5)ccc4c3=O)c2)CC1 [Compound 218] | 101 to 500 | 10 to 100
31 | O=C(NCC1CCN(CC(F)F)CC1)c1cccc(Cn2ccc3cc(N4CCOCC4)ccc3c2=O)c1 [Compound 219] | 101 to 500 | 10 to 100
32 | O=C(NCC1CCN(CC(F)(F)F)CC1)c1cccc(Cn2ccc3cc(N4CCOCC4)ccc3c2=O)c1 [Compound 220] | 101 to 500 | 10 to 100
33 | O=C(NCC1CCN(CC(F)(F)F)CC1)c1cc(F)cc(Cn2ccc3cc(N4CCOCC4)ccc3c2=O)c1 [Compound 221] | 101 to 500 | 10 to 100
34 | CN1CCC(CNC(=O)c2cc(F)cc(Cn3ccc4cc(N5CCOCC5)ccc4c3=O)c2)CC1 [Compound 222] | 101 to 500 | 10 to 100
35 | CC(C)N1CCC(CNC(=O)c2cccc(Cn3ccc4cc(N5CCOCC5)ccc4c3=O)c2)CC1 [Compound 223] | 101 to 500 | 10 to 100
36 | CC(C)N1CCC(CNC(=O)c2cc(F)cc(Cn3ccc4cc(N5CCOCC5)ccc4c3=O)c2)CC1 [Compound 224] | 101 to 500 | 10 to 100
37 | O=C(NCC1CCN(C2CC2)CC1)c1cccc(Cn2ccc3cc(N4CCOCC4)ccc3c2=O)c1 [Compound 225] | 101 to 500 | 10 to 100
38 | O=C(NCC1CCN(C2CC2)CC1)c1cc(F)cc(Cn2ccc3cc(N4CCOCC4)ccc3c2=O)c1 [Compound 226] | 101 to 500 | 10 to 100
39 | O=C(NCC1CCN(C2COC2)CC1)c1cccc(Cn2ccc3cc(N4CCOCC4)ccc3c2=O)c1 [Compound 227] | 101 to 500 | 10 to 100
40 | O=C(NCC1CCN(C2COC2)CC1)c1cc(F)cc(Cn2ccc3cc(N4CCOCC4)ccc3c2=O)c1 [Compound 228] | 101 to 500 | 10 to 100

Row | SMILES | IC50 [1] [nM] | IC50 [2] [nM]
41 | O=C(NCCN1CCOCC1)c1cc(F)cc(Cn2ccc3cc(N4CCOCC4)ccc3c2=O)c1 [Compound 229] | 11 to 100 | 10 to 100
42 | O=C(NCCN1CCOCC1)c1cccc(Cn2ccc3cc(N4CCOCC4)ccc3c2=O)c1 [Compound 230] | 11 to 100 | 10 to 100
43 | CNC(=O)c1cccc(Cn2ccc3cc(-c4cc[nH]c4C)ncc3c2=O)c1 [Compound 231, N-methyl-3-((6-(2-methyl-1H-pyrrol-3-yl)-1-oxo-2,7-naphthyridin-2(1H)-yl)methyl)benzamide] | 11 to 100 | < 10
44 | [2H]C([2H])([2H])NC(=O)c1cccc(Cn2ccc3cc(-c4cc[nH]c4C)ncc3c2=O)c1 [Compound 232] | 11 to 100 | < 10
45 | [2H]C([2H])([2H])NC(=O)c1cccc(Cn2ccc3cc(-c4cn[nH]c4C(F)(F)F)ncc3c2=O)c1 [Compound 234] | 11 to 100 | < 10
46 | CNC(=O)c1cccc(Cn2ccc3cc(-c4c[nH]nc4Cl)ncc3c2=O)c1 [Compound 235] | 11 to 100 | < 10
47 | [2H]C([2H])([2H])NC(=O)c1cccc(Cn2ccc3cc(-c4c[nH]nc4Cl)ncc3c2=O)c1 [Compound 236] | 11 to 100 | < 10
48 | CNC(=O)c1cccc(Cn2ccc3cc(-c4cn[nH]c4C(F)F)ncc3c2=O)c1 [Compound 237] | 11 to 100 | < 10
49 | [2H]C([2H])([2H])NC(=O)c1cccc(Cn2ccc3cc(-c4cn[nH]c4C(F)F)ncc3c2=O)c1 [Compound 238] | 11 to 100 | < 10
50 | CNC(=O)c1cccc(Cn2ccc3cc(-c4c[nH]nc4C)ncc3c2=O)c1 [Compound 239] | 11 to 100 | < 10
51 | CNC(=O)c1cccc(Cn2ccc3cc(-c4ccnn4C)ncc3c2=O)c1 [Compound 240] | 101 to 500 | 10 to 100
52 | CNC(=O)c1cccc(Cn2ccc3cc(-c4conc4C)ncc3c2=O)c1 [Compound 241] | 101 to 500 | 10 to 100
53 | CNC(=O)c1cccc(Cn2ccc3cc(-c4cn[nH]c4C(F)(F)F)cnc3c2=O)c1 [Compound 242] | > 501 | 100 to 500
54 | CNC(=O)c1cccc(Cn2ccc3cc(-c4conc4C)cnc3c2=O)c1 [Compound 243] | > 501 | 100 to 500
55 | CNC(=O)c1cccc(Cn2ccc3cc(-c4ccnc(N)c4)ncc3c2=O)c1 [Compound 244] | 101 to 500 | 10 to 100
56 | CNC(=O)c1cc(F)cc(Cn2ccc3cc(-c4ccnn4C)ncc3c2=O)c1 [Compound 245] | 101 to 500 | 10 to 100
57 | CNC(=O)c1cc(F)cc(Cn2ccc3cc(-c4cn[nH]c4C(F)(F)F)ncc3c2=O)c1 [Compound 246] | 11 to 100 | < 10
58 | CNC(=O)c1cc(F)cc(Cn2ccc3cc(-c4ccoc4C)ncc3c2=O)c1 [Compound 247] | > 501 | > 500
59 | CNC(=O)c1cc(F)cc(Cn2ccc3cc(-c4cn[nH]c4C)ncc3c2=O)c1 [Compound 248] | 11 to 100 | 10 to 100
60 | CNC(=O)c1cc(F)cc(Cn2ccc3cc(-c4c[nH]nc4Cl)ncc3c2=O)c1 [Compound 249] | < 10 | < 10
